# Experimental data as given in patent US20160326142A1, “PYRAZOLE CARBOXAMIDE COMPOUNDS, COMPOSITIONS AND METHODS OF USE” (Genentech, Inc., priority 2012, published 2016).
# Biological target: T1, ITK (Homo sapiens, UniProt Q08881)
# T1 construct: purchased Invitrogen PV3875
# T1 sequence (Q08881 1-620): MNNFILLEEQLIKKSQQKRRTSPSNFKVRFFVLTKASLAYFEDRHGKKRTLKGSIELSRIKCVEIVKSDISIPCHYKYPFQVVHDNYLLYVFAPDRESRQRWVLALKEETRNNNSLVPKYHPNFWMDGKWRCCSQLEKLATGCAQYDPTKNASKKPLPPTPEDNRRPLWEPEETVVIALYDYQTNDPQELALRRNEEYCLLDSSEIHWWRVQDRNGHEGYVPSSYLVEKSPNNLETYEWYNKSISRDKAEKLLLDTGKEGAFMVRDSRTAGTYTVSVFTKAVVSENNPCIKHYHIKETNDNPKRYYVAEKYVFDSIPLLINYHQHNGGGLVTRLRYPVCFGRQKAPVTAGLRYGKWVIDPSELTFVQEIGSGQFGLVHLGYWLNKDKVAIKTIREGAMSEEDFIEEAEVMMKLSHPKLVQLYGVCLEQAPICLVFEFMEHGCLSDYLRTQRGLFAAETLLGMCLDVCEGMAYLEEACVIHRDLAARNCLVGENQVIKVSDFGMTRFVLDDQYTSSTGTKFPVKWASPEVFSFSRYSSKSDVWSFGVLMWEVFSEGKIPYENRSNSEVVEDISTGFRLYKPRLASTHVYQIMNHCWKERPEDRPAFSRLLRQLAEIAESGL
# Test: ITK enzyme assay (Caliper or LCMS peptide phosphorylation)
# Assay type: biochemical
# Details: purified ITK (Invitrogen PV3875), 20 μM ATP, Ki by Morrison's quadratic equation
# Method in brief: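 Ki values come from Morrison quadratic fits of activity versus inhibitor concentration, adjusted for ATP-competitive inhibition against ATP/Km,app. Substrate and phosphopeptide from purified ITK reactions were resolved either microfluidically (Caliper, EDTA stop) or by LC-MS MRM (TCA stop).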
row,Ki,SMILES
1,18 nM,"CC1(C)CCc2c(C(=O)Nc3cnn(C(c4ccccc4)C(C)(C)O)c3)n[nH]c2C1 (single isomer, unassigned) [Example 55b, N-(1-(2-hydroxy-2-methyl-1-phenylpropyl)-1H-pyrazol-4-yl)-6,6-dimethyl-4,5,6,7-tetrahydro-1H-indazole-3-carboxamide]"
2,9 nM,"CCC1(C)CCc2c(C(=O)Nc3cnn(Cc4ccccc4)c3)n[nH]c2C1 (single isomer, unassigned) [Example 56a, N-(1-benzyl-1H-pyrazol-4-yl)-6-ethyl-6-methyl-4,5,6,7-tetrahydro-1H-indazole-3-carboxamide]"
3,13 nM,"CCC1(C)CCc2c(C(=O)Nc3cnn(Cc4ccccc4)c3)n[nH]c2C1 (single isomer, unassigned) [Example 56b, N-(1-benzyl-1H-pyrazol-4-yl)-6-ethyl-6-methyl-4,5,6,7-tetrahydro-1H-indazole-3-carboxamide]"
4,2 nM,"CC1(C)CCc2c(C(=O)Nc3cnn(C(CN4CCC4)c4ccccc4)c3)n[nH]c2C1 (single isomer, unassigned) [Example 57a, N-(1-(2-(azetidin-1-yl)-1-phenylethyl)-1H-pyrazol-4-yl)-6,6-dimethyl-4,5,6,7-tetrahydro-1H-indazole-3-carboxamide]"
5,12 nM,"CC1(C)CCc2c(C(=O)Nc3cnn(C(CN4CCC4)c4ccccc4)c3)n[nH]c2C1 (single isomer, unassigned) [Example 57b, N-(1-(2-(azetidin-1-yl)-1-phenylethyl)-1H-pyrazol-4-yl)-6,6-dimethyl-4,5,6,7-tetrahydro-1H-indazole-3-carboxamide]"
6,7 nM,"CN(CCC(c1ccccc1)n1cc(NC(=O)c2n[nH]c3c2CCC(C)(C)C3)cn1)C1COC1 (single isomer, unassigned) [Example 58a, 6,6-dimethyl-N-(1-(3-(methyl(oxetan-3-yl)amino)-1-phenylpropyl)-1H-pyrazol-4-yl)-4,5,6,7-tetrahydro-1H-indazole-3-carboxamide]"
7,0.6 nM,"CN(CCC(c1ccccc1)n1cc(NC(=O)c2n[nH]c3c2CCC(C)(C)C3)cn1)C1COC1 (single isomer, unassigned) [Example 58b, 6,6-dimethyl-N-(1-(3-(methyl(oxetan-3-yl)amino)-1-phenylpropyl)-1H-pyrazol-4-yl)-4,5,6,7-tetrahydro-1H-indazole-3-carboxamide]"
8,5 nM,"CN(CC(c1ccccc1)n1cc(NC(=O)c2n[nH]c3c2CCC(C)(C)C3)cn1)S(C)(=O)=O (single isomer, unassigned) [Example 61a, 6,6-dimethyl-N-(1-(2-(N-methylmethylsulfonamido)-1-phenylethyl)-1H-pyrazol-4-yl)-4,5,6,7-tetrahydro-1H-indazole-3-carboxamide]"
9,1 nM,"CN(CC(c1ccccc1)n1cc(NC(=O)c2n[nH]c3c2CCC(C)(C)C3)cn1)S(C)(=O)=O (single isomer, unassigned) [Example 61b, 6,6-dimethyl-N-(1-(2-(N-methylmethylsulfonamido)-1-phenylethyl)-1H-pyrazol-4-yl)-4,5,6,7-tetrahydro-1H-indazole-3-carboxamide]"
10,3 nM,"CC1(C)CCc2c(C(=O)Nc3cnn(C(CN4CCOCC4)c4ccccc4)c3)n[nH]c2C1 (single isomer, unassigned) [Example 62a, 6,6-dimethyl-N-(1-(2-morpholino-1-phenylethyl)-1H-pyrazol-4-yl)-4,5,6,7-tetrahydro-1H-indazole-3-carboxamide]"
11,16 nM,"CC1(C)CCc2c(C(=O)Nc3cnn(C(CN4CCOCC4)c4ccccc4)c3)n[nH]c2C1 (single isomer, unassigned) [Example 62b, 6,6-dimethyl-N-(1-(2-morpholino-1-phenylethyl)-1H-pyrazol-4-yl)-4,5,6,7-tetrahydro-1H-indazole-3-carboxamide]"
12,0.1 nM,"CC1(C)CCc2c(C(=O)Nc3cnn(C(c4ccccc4)C4CCN(CCF)CC4)c3)n[nH]c2C1 (single isomer, unassigned) [Example 63a, N-(1-((1-(2-fluoroethyl)piperidin-4-yl)(phenyl)methyl)-1H-pyrazol-4-yl)-6,6-dimethyl-4,5,6,7-tetrahydro-1H-indazole-3-carboxamide]"
13,1 nM,"CC1(C)CCc2c(C(=O)Nc3cnn(C(c4ccccc4)C4CCN(CCF)CC4)c3)n[nH]c2C1 (single isomer, unassigned) [Example 63b, N-(1-((1-(2-fluoroethyl)piperidin-4-yl)(phenyl)methyl)-1H-pyrazol-4-yl)-6,6-dimethyl-4,5,6,7-tetrahydro-1H-indazole-3-carboxamide]"
14,0.3 nM,"CC1(C)CCc2c(C(=O)Nc3cnn(C(c4ccccc4)[C@@H]4CNCCO4)c3)n[nH]c2C1 (single isomer, unassigned) [Example 66a]"
15,1 nM,"CC1(C)CCc2c(C(=O)Nc3cnn(C(c4ccccc4)[C@@H]4CNCCO4)c3)n[nH]c2C1 (single isomer, unassigned) [Example 66b]"
16,0.2 nM,"CC1(C)CCc2c(C(=O)Nc3cnn(C(c4ccccc4)C4CCN(S(C)(=O)=O)CC4)c3)n[nH]c2C1 (single isomer, unassigned) [Example 67a, 6,6-dimethyl-N-(1-((1-(methylsulfonyl)piperidin-4-yl)(phenyl)methyl)-1H-pyrazol-4-yl)-4,5,6,7-tetrahydro-1H-indazole-3-carboxamide]"
17,3 nM,"CC1(C)CCc2c(C(=O)Nc3cnn(C(c4ccccc4)C4CCN(S(C)(=O)=O)CC4)c3)n[nH]c2C1 (single isomer, unassigned) [Example 67b, 6,6-dimethyl-N-(1-((1-(methylsulfonyl)piperidin-4-yl)(phenyl)methyl)-1H-pyrazol-4-yl)-4,5,6,7-tetrahydro-1H-indazole-3-carboxamide]"
18,0.2 nM,"CN(C)CC(c1ccccc1)n1cc(NC(=O)c2n[nH]c3c2CC2CC2(C)C3)cn1 (single isomer, unassigned) [Example 68a, N-(1-(2-(dimethylamino)-1-phenylethyl)-1H-pyrazol-4-yl)-5a-methyl-1,4,4a,5,5a,6-hexahydrocyclopropa[f]indazole-3-carboxamide]"
19,4 nM,"CN(C)CC(c1ccccc1)n1cc(NC(=O)c2n[nH]c3c2CC2CC2(C)C3)cn1 (single isomer, unassigned) [Example 68b, N-(1-(2-(dimethylamino)-1-phenylethyl)-1H-pyrazol-4-yl)-5a-methyl-1,4,4a,5,5a,6-hexahydrocyclopropa[f]indazole-3-carboxamide]"
20,11 nM,"CC1(C)Cc2[nH]nc(C(=O)Nc3cnn(Cc4ccccc4)c3)c2CC1O (single isomer, unassigned) [Example 70a, N-(1-benzyl-1H-pyrazol-4-yl)-5-hydroxy-6,6-dimethyl-4,5,6,7-tetrahydro-1H-indazole-3-carboxamide]"
21,7 nM,"CC1(C)Cc2[nH]nc(C(=O)Nc3cnn(Cc4ccccc4)c3)c2CC1O (single isomer, unassigned) [Example 70b, N-(1-benzyl-1H-pyrazol-4-yl)-5-hydroxy-6,6-dimethyl-4,5,6,7-tetrahydro-1H-indazole-3-carboxamide]"
22,0.7 nM,"CC1(C)CCc2c(C(=O)Nc3cnn(C(CS(C)(=O)=O)c4cccnc4)c3)n[nH]c2C1 (single isomer, unassigned) [Example 73a, 6,6-dimethyl-N-(1-(2-(methylsulfonyl)-1-(pyridin-3-yl)ethyl)-1H-pyrazol-4-yl)-4,5,6,7-tetrahydro-1H-indazole-3-carboxamide]"
23,7 nM,"CC1(C)CCc2c(C(=O)Nc3cnn(C(CS(C)(=O)=O)c4cccnc4)c3)n[nH]c2C1 (single isomer, unassigned) [Example 73b, 6,6-dimethyl-N-(1-(2-(methylsulfonyl)-1-(pyridin-3-yl)ethyl)-1H-pyrazol-4-yl)-4,5,6,7-tetrahydro-1H-indazole-3-carboxamide]"
24,0.2 nM,"CC1(C)CCc2c(C(=O)Nc3cnn(C(c4cccnc4)C4CCS(=O)(=O)CC4)c3)n[nH]c2C1 (single isomer, unassigned) [Example 74a, N-(1-((1,1-dioxidotetrahydro-2H-thiopyran-4-yl)(pyridin-3-yl)methyl)-1H-pyrazol-4-yl)-6,6-dimethyl-4,5,6,7-tetrahydro-1H-indazole-3-carboxamide]"
25,3 nM,"CC1(C)CCc2c(C(=O)Nc3cnn(C(c4cccnc4)C4CCS(=O)(=O)CC4)c3)n[nH]c2C1 (single isomer, unassigned) [Example 74b, N-(1-((1,1-dioxidotetrahydro-2H-thiopyran-4-yl)(pyridin-3-yl)methyl)-1H-pyrazol-4-yl)-6,6-dimethyl-4,5,6,7-tetrahydro-1H-indazole-3-carboxamide]"
26,2 nM,"CC1(C)CCc2c(C(=O)Nc3cnn(C(c4ccccc4)C4CN(CCF)C4)c3)n[nH]c2C1 (single isomer, unassigned) [Example 75a, N-(1-((1-(2-fluoroethyl)azetidin-3-yl)(phenyl)methyl)-1H-pyrazol-4-yl)-6,6-dimethyl-4,5,6,7-tetrahydro-1H-indazole-3-carboxamide]"
